By IC50 is commonly meant the concentration needed to halve the response being measured. High values mean weaker potency, low ones greater potency.

Series [1] is described as follows: Metabolic stability in human liver microsomes. The class given is in vitro ADME. The conditions noted are these: human liver microsomes 0.5 mg/mL, compound 1 μM.
Protocol: Metabolic Experiment of Liver Microparticle.
Experiments in microsomes: Human liver microsomes: 0.5 mg/mL, Xenotech; Rat liver microsomes: 0.5 mg/mL, Xenotech; Coenzyme (NADPH/NADH): 1 mM, Sigma Life Science; Magnesium chloride: 5 mM, 100 mM phosphate buffer (pH 7.4).
Preparation of phosphate buffer (100 mM, pH7.4): A pre-formulated 0.5M potassium dihydrogen phosphate (150 mL) was mixed with 0.5M dibasic potassium phosphate (700 mL). The pH of the mixture was adjusted to 7.4 with 0.5M dibasic potassium phosphate solution. The mixture was diluted 5-fold with ultrapure water before use, and magnesium chloride was added to obtain a phosphate buffer (100 mM) containing 100 mM potassium phosphate, 3.3 mM magnesium chloride, pH 7.4.
A NADPH regeneration system solution (containing 6.5 mM NADP, 16.5 mM G-6-P, 3 U/mL G-6-PD, 3.3 mM magnesium chloride) was prepared and placed on wet ice prior to use.
Preparation of stop solution: acetonitrile solution containing 50 ng/mL propranolol hydrochloride and 200 ng/mL tolbutamide (internal standard). 25057.5 μL of phosphate buffer (pH 7.4) was taken into a 50 mL centrifuge tube, to which 812.5 μL human liver microsomes were added, and mixed to obtain a liver microsome dilution solution with a protein concentration of 0.625 mg/mL.
Incubation of the samples: The stock solution of the respective compound was respectively diluted to 0.25 mM with an aqueous solution containing 70% acetonitrile, and used as a working solution, ready for use. 398 μL of the dilution solution of human liver microsomes or rat liver microsome were added to a 96-well incubation plate (N=2), respectively, and 2 μL of 0.25 mM working solution was added and mixed.
Metabolic stability assay: 300 μL of pre-chilled stop solution was added to each well of a 96-well deep well plate and placed on ice as a stop plate. The 96 well incubation plate and NADPH regeneration system were placed in a 37° C. water bath box, shaken at 100 rpm and pre-incubated for 5 min. 80 μL of incubation solution was taken out from each well of the incubation plate and added to the stop plate, mixed, and replenished with 20 μL of NADPH regeneration system solution as a 0-min sample. 80 μL of NADPH regeneration system solution was added to each well of the incubation plate to start the reaction and start counting. […] 100 μL of the supernatant was added to a 96-well plate to which 100 μL of distilled water was previously added, mixed, and analyzed by LC-MS/MS.
Data analysis: The peak areas of the corresponding compound and internal standard were detected by LC-MS/MS system, and the ratio of the peak area of the compound to the internal standard was calculated.
Series [2] deals with cancer cells expressing the ALK mutant L1196M. As to the kind of experiment: Cytotoxicity experiments, growth of cells expressing ALK mutant L1196M. The class given is cell-based, murine. The conditions noted are these: two days incubation.
Series [3] concerns BaF3-NPM-ALK cells (ALK WT). As to the kind of experiment: Cytotoxicity experiments, growth of BaF3-NPM-ALK cells, ALK WT. In kind it is cell-based, murine. The note with it: two days incubation. The text has this: Cytotoxicity Experiments.
The cell line that can be used in the assay is Ba/F3, a murine pro-B cell line that has been stably transfected with the expression vector pClneo™ (Promega Corp., Madison Wis.) encoding NPM-ALK and subsequently G418-resistent cells were selected. The inhibitory activity of the compounds of Formula I can be determined as follows: BaF3-NPM-ALK cells (15000/well in a microtiter plate) were transferred to a 96-well microtiter plate. Test compounds (dissolved in DMSO) were then added in a series of concentrations (serial dilutions) with a final concentration of DMSO not exceeding 1% (v/v). […] The cell lysis was completed at room temperature within 60 minutes and the amount of Yopro bound to the DNA was determined by measurement using, for example, a CytoFluor II 96-well reader (PerSeptive Biosystems). IC50 can be determined by computer aided system using the following formula: IC50=[(ABS test−ABS start)/(ABS control−ABS start)]×100 wherein ABS was absorption.

Some results are limits rather than exact numbers.

As to `[2H]C([2H])([2H])n1nc2c(c1C#N)-c1cnc(N)c(c1)OC(C)c1cc(F)ccc1C(=O)N(C)C2` (stereo not drawn) [Compound 28], in series [1], the “CLint” value was found to be 9.7 µL/min/mg and the “t1/2” value is 2.377 h.
Turning to `CC1Oc2cc(cnc2N)-c2c(nn(C)c2C#N)CN(C)C(=O)c2ccc(F)cc21` (stereo not drawn) [Compound 28], the results for the IC50 in series [2] and in series [3] were 1 to 100 nM and under 1 nM, respectively.
For `CC1Oc2cc(cnc2N)-c2c(nn(C)c2C#N)CN(C)C(=O)c2ccc(F)cc21` (stereo not drawn) [Compound 58] the same measures were 1 to 100 nM and under 1 nM.
For `CC1Oc2cc(cnc2N)-c2c(nn(C)c2C#N)CN(C)C(=O)c2ccc(F)cc21` (stereo not drawn) [Compound 18] the same measures were 1 to 100 nM and under 1 nM.
In the same order, the values of `CC1Oc2cc(cnc2N)-c2c(nn(C)c2C#N)CN(C)C(=O)c2ccc(F)cc21` (stereo not drawn) [Compound 45] are 1 to 100 nM and under 1 nM.
In series [2], `C[C@H]1Oc2cc(cnc2N)-c2c(nn(C)c2C#N)CN(C)C(=O)c2ccc(F)cc21` [PF-06463922, reference compound] displayed an IC50 of 1 to 100 nM. The compound further yielded an IC50 in series [3] of under 1 nM. In series [1], the “CLint” value came out at 11.8 µL/min/mg and the “t1/2” value worked out at 1.952 h.
Take `CC1Oc2cc(cnc2N)-c2c(nn(C)c2C#N)CN(C)C(=O)c2ccc(F)cc21` (stereo not drawn) [Compound 76]: the figures for the IC50 in series [2] and in series [3] were 1 to 100 nM and under 1 nM, respectively.
Regarding `CC1Oc2cc(cnc2N)-c2c(nn(C)c2C#N)CN(C)C(=O)c2ccc(F)cc21` (racemic) [Compound 72], the IC50 is 1 to 100 nM in series [2] and under 1 nM in series [3].
